From patent US11667602B2, “Compounds and their use” (AstraZeneca AB, priority 2020, dated 2023)
In brackets after ≈: the same amount, converted by molar mass.

Experiments:
[1] = Human Plasma Protein Binding (Test B); assay type: in vitro ADME; details: fraction unbound (fu)
How it was run: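 Human plasma protein binding run per the published Wernevik et al. (2020) integrated DMPK panel protocol. Values are fraction unbound (fu, % free); repeat runs averaged arithmetically.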

[2] = Rat Hepatocyte Stability (Test E); assay type: in vitro ADME; details: rat, hepatocytes, geometric mean if run multiple times
How it was run: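 Run per the published AstraZeneca-type rat hepatocyte stability protocol (Wernevik et al. panel). Values are mean intrinsic clearance, Clint in μl/min/10^6 cells; geometric mean used for repeated runs.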

Solubility (Test F) = assay type: physicochemical; details: arithmetic mean if run multiple times
Procedure: The assay was conducted according to the Solubility Assay described in pages 164-167 of Wernevik, J. et al., “A Fully Integrated Assay Panel for Early Drug Metabolism and Pharmacokinetics Profiling”, Assay and Drug Development Technologies, 2020, 18(4), 157-179. Data are reported in Table 36 as solubility ([…]. Where the assay was run multiple times for the same compound, the arithmetic mean is reported.

human RXFP1 [3] = target: T1, human RXFP1 (Homo sapiens, UniProt Q9HBX9); assay: Human RXFP1 Phospho-ERK Assay (Test H); assay type: cell-based; set-up: expressed in transfected cells; details: HEK293s cells stably transfected with human RXFP1; phospho-ERK (Thr202/Tyr204) HTRF, 5 min stimulation; read-out: Test H phospo-ERK assay EC50
T1 sequence (Q9HBX9 1-757): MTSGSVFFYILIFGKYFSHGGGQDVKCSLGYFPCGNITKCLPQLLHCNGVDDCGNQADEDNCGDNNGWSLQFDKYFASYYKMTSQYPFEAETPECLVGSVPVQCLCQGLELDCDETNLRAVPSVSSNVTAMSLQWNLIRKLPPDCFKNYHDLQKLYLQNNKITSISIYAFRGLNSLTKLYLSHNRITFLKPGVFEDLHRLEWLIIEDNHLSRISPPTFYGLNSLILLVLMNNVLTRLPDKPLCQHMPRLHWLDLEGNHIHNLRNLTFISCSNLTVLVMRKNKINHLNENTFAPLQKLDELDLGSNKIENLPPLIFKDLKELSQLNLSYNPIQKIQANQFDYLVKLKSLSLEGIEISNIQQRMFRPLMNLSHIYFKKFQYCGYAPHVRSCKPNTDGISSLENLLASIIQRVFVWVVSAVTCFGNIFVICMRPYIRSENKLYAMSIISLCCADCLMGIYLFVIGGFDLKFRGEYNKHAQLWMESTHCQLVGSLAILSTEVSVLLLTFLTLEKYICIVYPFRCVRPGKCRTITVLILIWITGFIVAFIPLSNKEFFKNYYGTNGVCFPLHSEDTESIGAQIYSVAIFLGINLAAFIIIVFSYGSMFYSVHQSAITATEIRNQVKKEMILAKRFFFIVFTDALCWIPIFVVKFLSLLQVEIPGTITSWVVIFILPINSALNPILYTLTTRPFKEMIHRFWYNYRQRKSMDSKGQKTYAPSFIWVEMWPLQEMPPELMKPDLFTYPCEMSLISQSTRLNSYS
Excerpt: Cells: HEK293s cells stably transfected with human RXFP1 in pIRESneo3 was employed.

human RXFP1 [4] = target: T1, human RXFP1; assay: RXFP1 Hu cAMP (Test A); assay type: cell-based; set-up: expressed in transfected cells; host or cells: Jump-In T-REx CHO-K1 cells (ThermoFisher), induced with 10 ng/ml doxycycline for 24 h; details: RXFP1 Hu cAMP; for EC50: read-out: Test A EC50
How it was run: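 Cells: CHO-K1 stably carrying human RXFP1, expressed after 24 h 10 ng/ml doxycycline; 0.5 mM IBMX final, HTRF detection after 2 h at room temperature.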

Structure (SMILES)	Test B Human Plasma Protein Binding (% free) [1]	hepatocyte CLint [2]	solubility (Solubility (Test F))	EC50 (human RXFP1 [3])	Test A Sinf (human RXFP1 [4])	EC50 (human RXFP1 [4])
COc1cc(F)c(-c2ccc(C(=O)O)cc2)cc1C(=O)N[C@H]1[C@@H](C(=O)Nc2cccc(S(=O)(=O)C(F)(F)F)c2)[C@@H]2C=C[C@H]1C2 (single isomer, unassigned) [Example 552]	0.060 % free	16 µL/min/1e6 cells	> 1000 µM	81 nM	98%	140 nM
COc1cc(F)c(O[C@H]2CC[C@@](C)(C(=O)O)CC2)cc1C(=O)N[C@@H]1[C@H]2CC[C@H](C2)[C@@H]1C(=O)Nc1cccc(S(=O)(=O)C(F)(F)F)c1 [Example 208, (1S,4s)-4-(2-Fluoro-4-methoxy-5-(((1S,2R,3S,4R)-3-((3-((trifluoromethyl)sulfonyl)phenyl)carbamoyl)bicyclo[2.2.1]heptan-2-yl)carbamoyl)phenoxy)-1-methylcyclohexane-1-carboxylic acid]	1 % free	35 µL/min/1e6 cells	130 µM (≈ 87.2 µg/mL)	1.2 nM	108%	< 2 nM
COc1cc(F)c(O[C@H]2CC[C@@](C)(C(=O)O)CC2)cc1C(=O)N[C@@H]1[C@H]2CC[C@H](C2)[C@@H]1C(=O)Nc1ccc(F)c(S(F)(F)(F)(F)F)c1 [Example 353]	<0.23 % free	23 µL/min/1e6 cells	45 µM (≈ 30.7 µg/mL)	0.36 nM	114%	0.41 nM
COc1cc(F)c(O[C@H]2CC[C@@H](C(=O)O)CC2)cc1C(=O)N[C@@H]1[C@H]2CC[C@H](C2)[C@@H]1C(=O)Nc1ccc(F)c(S(F)(F)(F)(F)F)c1 [Example 433]	0.38 % free	17 µL/min/1e6 cells	240 µM (≈ 160 µg/mL)		109%	5.3 nM
